“Also recorded” adds a separate entry of the source.
Tested on: target microorganisms
Assay: Screen of synthesized peptides for binding to target microorganisms (targeting peptides, Tables 2 and 3)
Conditions: microorganism(s) the targeting peptide was identified as binding to (Table 3)
Procedure: Once noted, these peptides were batch synthesized on a multiplex peptide synthesizer, yielding 5-10 mg of each peptide that could readily be screened for biological activity (e.g., binding activity and/or antimicrobial activity.
Other suitable targeting peptides include the peptides that have been identified as binding to particular target organisms as shown in Table 3 and/or Table 4.

Substance | Target(s)
1T-52 (DEYPAKLPLSDKGATEPRRH; synthetic novel tartgeting peptide IT-52) | S. aureus; also recorded: C. xerosis; also recorded: P. aeruginosa
1T-53 (SDILAEMFEKGELQTLVKDAAAKANA; synthetic novel tartgeting peptide IT-53) | P. aeruginosa
1T-54 (RWVSCNPSWRIQ; synthetic novel tartgeting peptide IT-54) | S. epidermidis; also recorded: C. xerosis; also recorded: C. striatum; also recorded: P. aeruginosa
1T-55 (NHKTLKEWKAKWGPEAVESWATLLG; synthetic novel tartgeting peptide IT-55) | C. xerosis; also recorded: P. aeruginosa
1T-56 (LALIGAGIWMIRKG; synthetic novel tartgeting peptide IT-56) | C. xerosis; also recorded: P. aeruginosa
1T-57 (RLEYRRLETQVEENPESGRRPMRG; synthetic novel tartgeting peptide IT-57) | P. aeruginosa
1T-58 (CDDLHALERAGKLDALLSA; synthetic novel tartgeting peptide IT-58) | P. aeruginosa
1T-59 (AVGNNLGKDNDSGHRGKKHRKHKHR; synthetic novel tartgeting peptide IT-59) | S. aureus; also recorded: S. epidermidis; also recorded: P. aeruginosa
1T-60 (YLTSLGLDAAEQAQGLLTILKG; synthetic novel tartgeting peptide IT-60) | S. aureus; also recorded: S. epidermidis; also recorded: C. jeikeium; also recorded: C. striatum; also recorded: P. aeruginosa
1T-61 (HATLLPAVREAISRQLLPALVPRG; synthetic novel tartgeting peptide IT-61) | P. aeruginosa
1T-62 (GCKGCAQRDPCAEPEPYFRLR; synthetic novel tartgeting peptide IT-62) | S. epidermidis; also recorded: P. aeruginosa
1T-63 (EPLILKELVRNLFLFCYARALR; synthetic novel tartgeting peptide IT-63) | S. aureus; also recorded: S. epidermidis; also recorded: C. jeikeium; also recorded: C. xerosis; also recorded: C. striatum; also recorded: P. aeruginosa
1T-64 (QTVHHIHMHVLGQRQMHWPPG; synthetic novel tartgeting peptide IT-64) | S. aureus; also recorded: S. epidermidis; also recorded: C. jeikeium; also recorded: C. xerosis; also recorded: C. striatum; also recorded: P. aeruginosa
1T-65 (HARAAVGVAELPRGAAVEVELIAAVRP; synthetic novel tartgeting peptide IT-65) | S. mutans; also recorded: S. aureus; also recorded: S. epidermidis; also recorded: C. jeikeium; also recorded: C. xerosis; also recorded: C. striatum; also recorded: P. aeruginosa
1T-66 (DTDCLSRAYAQRIDELDKQYAGIDKPL; synthetic novel tartgeting peptide IT-66) | S. mutans; also recorded: S. aureus; also recorded: S. epidermidis; also recorded: C. jeikeium; also recorded: C. xerosis; also recorded: C. striatum; also recorded: P. aeruginosa
1T-67 (GQRQRLTCGRVSGCSEGPSREAAR; synthetic novel tartgeting peptide IT-67) | S. aureus; also recorded: S. epidermidis; also recorded: C. jeikeium; also recorded: C. xerosis; also recorded: C. striatum; also recorded: P. aeruginosa
1T-68 (GGTKEIVYQRG; synthetic novel tartgeting peptide IT-68) | S. mutans; also recorded: S. aureus; also recorded: C. jeikeium; also recorded: C. xerosis; also recorded: C. striatum; also recorded: P. aeruginosa
1T-69 (ILSQEADRKKLF; synthetic novel tartgeting peptide IT-69) | S. mutans; also recorded: P. aeruginosa
1T-70 (NRQAQGERAHGEQQG; synthetic novel tartgeting peptide IT-70) | S. aureus; also recorded: C. jeikeium; also recorded: P. aeruginosa
1T-71 (KIDTNQWPPNKEG; synthetic novel tartgeting peptide IT-71) | P. aeruginosa
1T-72 (EPTDGVACKER; synthetic novel tartgeting peptide IT-72) | P. aeruginosa

Substance | Target(s)
1T-73 (GWWEELLHETILSKFKITKALELPIQL; synthetic novel tartgeting peptide IT-73) | Streptococcus; also recorded: pneumoniae
1T-74 (DIDWGRKISCAAGVAYGAIDGCATTV; synthetic novel tartgeting peptide IT-74) | S. pneumoniae
1T-75 (GVARGLQLGIKTRTQWGAATGAA; synthetic novel tartgeting peptide IT-75) | S. pneumoniae
1T-76 (EMRLSKFFRDFILWRKK; synthetic novel tartgeting peptide IT-76) | S. pneumoniae
1T-77 (EMRISRIILDFLFLRKK; synthetic novel tartgeting peptide IT-77) | S. pneumoniae
1T-78 (FFKTIFVLILGALGVAAGLYIEKNYIDK; synthetic novel tartgeting peptide IT-78) | S. pneumoniae
1T-79 (FGTPWSITNFWKKNFNDRPDFDSDRRRY; synthetic novel tartgeting peptide IT-79) | S. pneumoniae
1T-80 (GGNLGPGFGVIIP; synthetic novel tartgeting peptide IT-80) | S. pneumoniae
1T-81 (AIATGLDIVDGKFDGYLWA; synthetic novel tartgeting peptide IT-81) | S. pneumoniae
1T-82 (FGVGVGIALFMAGYAIGKDLRKKFGKSC; synthetic novel tartgeting peptide IT-82) | S. pneumoniae
1T-83 (QKPRKNETFIGYIQRYDIDGNGYQSLPCPQN; synthetic novel tartgeting peptide IT-83) | S. pneumoniae
1T-84 (FRKKRYGLSILLWLNAFTNLVNSIHAFYMTLF; synthetic novel tartgeting peptide IT-84) | S. pneumoniae
1T-85 (VMASLTWRMRAASASLPTHSRTDA; synthetic novel tartgeting peptide IT-85) | A. naeslundii, F. nucleatum,; also recorded: P. gingivalis; also recorded: S. epidermidis,; also recorded: S. gordonii, S. mitis, S. mutans,; also recorded: S. oralis, S. salivarious,; also recorded: S. sanguinis
1T-86 (HRKNPVLGVGRRHRAHNVA; synthetic novel tartgeting peptide IT-86) | S. mitis, S. oralis, S. salivarious
1T-87 (EAVGQDLVDAHHP; synthetic novel tartgeting peptide IT-87) | S. mitis, S. mutans, S. oralis
1T-89 (HEDDKRRGMSVEVLGFEVVQHEE; synthetic novel tartgeting peptide IT-89) | S. mitis, S. mutans
1T-90 (RNVIGQVL; synthetic novel tartgeting peptide IT-90) | S. gordonii, S. mitis, S. mutans,; also recorded: S. oralis, S. sanguinis
1T-91 (TSVRPGAAGAAVPAGAAGAAGAGWRWP; synthetic novel tartgeting peptide IT-91) | S. mitis, S. mutans, S. oralis,; also recorded: S. sanguinis
1T-92 (GQDEGQRRAGVGEGQGVDG; synthetic novel tartgeting peptide IT-92) | S. mitis, S. mutans
1T-93 (AMRSVNQA; synthetic novel tartgeting peptide IT-93) | S. epidermidis, S. gordonii,; also recorded: S. mitis, S. mutans,; also recorded: S. oralis, S. sanguinis

From patent publication US8389679B2, “Targeted antimicrobial moieties” (priority 2009, dated 2013)
